Assay results: patent US8026378B2, “Glyceryl ether compounds and their use” (Segetis, Inc., priority 2005, dated 2011)

Assay: Emulsifying properties: hexane/water emulsions
Assay type: physicochemical
Conditions: for emulsifying properties on addition of salt: addition of 0.2% calcium chloride or magnesium chloride, mixture of isomers; for stability of emulsions of water in hexane: aqueous solutions of the mixture of isomers
Text: […] The emulsifying properties of compounds (12a) and (12b) were not disrupted by the addition of 0.2% calcium chloride or magnesium chloride.

| emulsifying properties on addition of salt | Structure (SMILES) | stability of emulsions of water in hexane |
| --- | --- | --- |
| not disrupted | CCCCCCCCC(O)COCC(O)CO (stereo not drawn) [Compound 12a] | – |
| not substantially disrupted | CCCCCCCCCCCCCCCCC(O)COCC(O)CO (stereo not drawn) [Compound 13a] | able to support stability of emulsions of water in hexane |
| not substantially disrupted | CCCCCCCCCCCCCCCCC(CO)OCC(O)CO (stereo not drawn) [Compound 13b] | able to support stability of emulsions of water in hexane |
| not disrupted | CCCCCCCCC(CO)OCC(O)CO (stereo not drawn) [Compound 12b] | – |
